What follows are compounds tested against HPK1 (Homo sapiens (Human), UniProt Q92918, S171E/T165E) (assay: HPK1-FL HTRF Enzymatic Assay (HTRF)). Settings: HPK full length T165E S171E 0.125 nM, ATP 1 mM, Biotin-SLP76 100 nM, read-out: HPK1 Ki (nM), H = HTRF.
Type: biochemical
Protocol: Exemplary compounds of Formula (I) were tested to assess compound inhibition of HPK-1. The Ki for each exemplary compound was determined
Example B1: HPK1-FL HTRF Enzymatic Assay (“HTRF”)
HPK-FL enzyme phosphorylates Biotin-SLP-76 substrate in the presence of ATP at 1 mM and varying concentrations of test compound. Product is detected by FRET using Eu-anti-pSLP76 Ab and SA-XL665. Also see www.cisbio.com/HTRF for additional HTRF technology information.
• Echo555 compound dispenser • Agilent Bravo • Perkin Elmer Envision Final Assay Conditions:
Materials: • Assay plate: White ProxiPlate 384 F (PerkinElmer cat #6008289) • Kinase: HPK full length double mutant • Substrate: Biotin-SLP76 • ATP: 100 mM ATP • BSG: 2% BSG • DMSO: DMSO (Sigma cat #34869-100ML) • Reaction Buffer: H2O/50 mM HEPES, pH 7.5/10 mM MgCl2/2 mM TCEP/0.01% Brij-35/0.01% BSG • Detection mix:Eu-anti-pSLP76/SA-XL665 (Cisbio, #610SAXAC) Assay Procedure Ki determination:
To a 384 well Proxiplate with 80 nL compound or DMSO spotted on was added 4 μl/well kinase mix. The mixture was preincubated for 30 minutes and then 4 μl/well substrate mix was added. The solution was incubated for 60 min and then 4 μl/well detection mix was added. The solution was incubated for another 60 min. The plates were then loaded onto a Perkin Elmer Envision and the TR-FRET signal was measured at 615 and 665 nm. A ratio of […] was used to calculate the % activity at each concentration of compound.

Chain of HPK1 (Q92918 whole entry T165E/S171E): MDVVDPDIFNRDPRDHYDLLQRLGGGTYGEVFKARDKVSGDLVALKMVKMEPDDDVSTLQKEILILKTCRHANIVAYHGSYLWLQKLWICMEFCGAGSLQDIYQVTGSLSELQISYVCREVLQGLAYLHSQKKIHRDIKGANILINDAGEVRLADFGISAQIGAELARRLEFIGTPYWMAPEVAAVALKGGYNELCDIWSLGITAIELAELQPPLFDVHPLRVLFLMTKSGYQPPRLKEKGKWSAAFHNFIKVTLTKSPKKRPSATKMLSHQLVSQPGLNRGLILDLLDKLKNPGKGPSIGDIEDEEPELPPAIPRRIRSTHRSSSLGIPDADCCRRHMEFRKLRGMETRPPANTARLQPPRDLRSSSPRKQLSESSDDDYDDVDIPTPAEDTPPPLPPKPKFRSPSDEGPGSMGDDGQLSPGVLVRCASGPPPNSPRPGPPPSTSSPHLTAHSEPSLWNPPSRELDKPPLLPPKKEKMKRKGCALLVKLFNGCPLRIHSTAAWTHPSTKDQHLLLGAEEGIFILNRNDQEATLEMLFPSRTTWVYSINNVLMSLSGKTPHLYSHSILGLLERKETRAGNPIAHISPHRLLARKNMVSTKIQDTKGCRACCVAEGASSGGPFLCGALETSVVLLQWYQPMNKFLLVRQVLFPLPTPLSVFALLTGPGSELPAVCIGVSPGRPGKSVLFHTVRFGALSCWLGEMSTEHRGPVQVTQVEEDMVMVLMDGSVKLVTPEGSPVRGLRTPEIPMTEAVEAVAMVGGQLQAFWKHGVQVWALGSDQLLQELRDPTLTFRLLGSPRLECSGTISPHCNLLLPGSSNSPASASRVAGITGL

Ki [nM]	Structure (SMILES)
0.037	Cc1c(N)cncc1-c1cc2cc(Nc3cc4n(n3)CC(=O)N(C)CC4(C)O)ncc2cc1F (single isomer, unassigned) [Compound 185b]
0.013	Cc1c(-c2cc3cc(Nc4cc5n(n4)CC(=O)N(C)CC54CC4)ncc3cc2F)cnc2c1NCC[C@H]2O (single isomer, unassigned) [Compound 205a]
0.013	Cc1c(-c2cc3cc(Nc4cc5n(n4)CC(=O)N(C)CC54CC4)ncc3cc2F)cnc2c1NCC[C@@H]2O (single isomer, unassigned) [Compound 205b]
6.7	CN[C@@H]1CCN(c2cc(C)c(-c3cc4cc(Nc5cc6n(n5)CC(=O)N(C)CC6)ncc4cc3F)cn2)C1 (single isomer, unassigned) [Compound 206a]
6.2	CN[C@H]1CCN(c2cc(C)c(-c3cc4cc(Nc5cc6n(n5)CC(=O)N(C)CC6)ncc4cc3F)cn2)C1 (single isomer, unassigned) [Compound 206b]
18	Cc1c(-c2cc3cc(Nc4cc5n(n4)CC(=O)N(C)CC5)ncc3cc2F)cnc2c1[C@@](C)(O)CCO2 (single isomer, unassigned) [Compound 226a]
1.9	Cc1c(-c2cc3cc(Nc4cc5n(n4)CC(=O)N(C)CC5)ncc3cc2F)cnc2c1[C@](C)(O)CCO2 (single isomer, unassigned) [Compound 226b]
8.3	CN[C@@H]1CCc2c(-c3cc4cc(Nc5cc6n(n5)CC(=O)N(C)CC6)ncc4cc3F)cncc21 (single isomer, unassigned) [Compound 228a]
446	CN[C@H]1CCc2c(-c3cc4cc(Nc5cc6n(n5)CC(=O)N(C)CC6)ncc4cc3F)cncc21 (single isomer, unassigned) [Compound 228b]
0.09	Cc1c(-c2cc3cc(Nc4cc5n(n4)CC(=O)N(C)CC54CC4)ncc3cc2F)cnc2c1NCC[C@]2(C)O (single isomer, unassigned) [Compound 229a]
0.016	Cc1c(-c2cc3cc(Nc4cc5n(n4)CC(=O)N(C)CC54CC4)ncc3cc2F)cnc2c1NCC[C@@]2(C)O (single isomer, unassigned) [Compound 229b]
1.3	Cc1c(-c2cc(F)c3cnc(Nc4cc5n(n4)CC(=O)N(C)CC5)cc3c2)cnc2c1NCC[C@@]2(C)O (single isomer, unassigned) [Compound 231a]
0.38	Cc1c(-c2cc(F)c3cnc(Nc4cc5n(n4)CC(=O)N(C)CC5)cc3c2)cnc2c1NCC[C@]2(C)O (single isomer, unassigned) [Compound 231b]
0.46	CO[C@H]1CCNc2c1ncc(-c1cc(F)c3cnc(Nc4cc5n(n4)CC(=O)N(C)CC5)cc3c1)c2C (single isomer, unassigned) [Compound 234a]
2.1	CO[C@@H]1CCNc2c1ncc(-c1cc(F)c3cnc(Nc4cc5n(n4)CC(=O)N(C)CC5)cc3c1)c2C (single isomer, unassigned) [Compound 234b]
2.1	Cc1c(-c2cc3cc(Nc4cc5n(n4)CC(=O)N(C)CC5)ncc3cc2F)cnc2c1[C@@H](F)CCO2 (single isomer, unassigned) [Compound 235a]
0.127	Cc1c(-c2cc3cc(Nc4cc5n(n4)CC(=O)N(C)CC5)ncc3cc2F)cnc2c1[C@H](F)CCO2 (single isomer, unassigned) [Compound 235b]
0.076	Cc1c(-c2cc3cc(Nc4cc5n(n4)CC(=O)N(C)CC5)ncc3cc2F)cnc2c1NCC[C@@H]2O (single isomer, unassigned) [Compound 236a]
0.062	Cc1c(-c2cc3cc(Nc4cc5n(n4)CC(=O)N(C)CC5)ncc3cc2F)cnc2c1NCC[C@H]2O (single isomer, unassigned) [Compound 236b]

Ki [nM]	Structure (SMILES)
0.332	Cc1c(-c2cc(F)c3cnc(Nc4cc5n(n4)CC(=O)N(C)CC54CC4)cc3c2)cnc2c1NCC[C@@H]2O (single isomer, unassigned) [Compound 237a]
0.319	Cc1c(-c2cc(F)c3cnc(Nc4cc5n(n4)CC(=O)N(C)CC54CC4)cc3c2)cnc2c1NCC[C@H]2O (single isomer, unassigned) [Compound 237b]
0.11	Cc1c(-c2cc3cc(Nc4cc5n(n4)CC(=O)N(C)CC5)ncc3cc2F)cnc2c1NCC(C)(C)[C@H]2O (single isomer, unassigned) [Compound 241a]
0.265	Cc1c(-c2cc3cc(Nc4cc5n(n4)CC(=O)N(C)CC5)ncc3cc2F)cnc2c1NCC(C)(C)[C@@H]2O (single isomer, unassigned) [Compound 241b]
0.457	Cc1c(-c2cc3cc(Nc4cc5n(n4)CS(=O)(=O)N(C)C5)ncc3cc2F)cnc2c1NCC[C@@H]2O (single isomer, unassigned) [Compound 242a]
1.7	Cc1c(-c2cc3cc(Nc4cc5n(n4)CS(=O)(=O)N(C)C5)ncc3cc2F)cnc2c1NCC[C@H]2O (single isomer, unassigned) [Compound 242b]
0.013	Cc1c(-c2cc3cc(Nc4cc5n(n4)Cc4nccn4CC5)ncc3cc2F)cnc2c1NCC[C@@H]2O (single isomer, unassigned) [Compound 243a]
0.02	Cc1c(-c2cc3cc(Nc4cc5n(n4)Cc4nccn4CC5)ncc3cc2F)cnc2c1NCC[C@H]2O (single isomer, unassigned) [Compound 243b]
4.6	Cc1ccncc1-c1cc2cc(Nc3cc4n(n3)CC(=O)N(C)CC4)ncc2c(Cl)c1F [Compound 110, 2-[[8-Chloro-7-fluoro-6-(4-methylpyridin-3-yl)isoquinolin-3-yl]amino]-6-methyl-4H,5H,6H,7H,8H-pyrazolo[1,5-d][1,4]diazepin-7-one]
0.01	Cc1c(N)cncc1-c1cc2cc(Nc3cc4n(n3)CC(=O)N(C)CC43CC3)ncc2cc1F [Compound 111, 2-[[6-(5-amino-4-methyl-3-pyridyl)-7-fluoro-3-isoquinolyl]amino]-6-methyl-spiro[5,8-dihydropyrazolo[1,5-d][1,4]diazepine-4,1′-cyclopropane]-7-one]
1.2	Cc1c(N)cncc1-c1cc2cc(Nc3cc4n(n3)CS(=O)(=O)N(C)CC4C)ncc2cc1F (centres unmarked) [Compound 113, 2-((6-(5-amino-4-methylpyridin-3-yl)-7-fluoroisoquinolin-3-yl)amino)-4,6-dimethyl-5,6-dihydro-4H,8H-pyrazolo[5,1-e][1,2,6]thiadiazepine 7,7-dioxide]
75	Cc1ccncc1-c1cc2cc(Nc3cn4c(n3)CC(=O)N(C)CC4)ncc2c(Cl)c1F [Compound 114, 2-((8-chloro-7-fluoro-6-(4-methylpyridin-3-yl)isoquinolin-3-yl)amino)-7-methyl-6,7-dihydro-5H-imidazo[1,2-d][1,4]diazepin-8(9H)-one]
0.2	Cc1c(-c2cc3cc(Nc4cc5n(n4)CC(=O)N(C(C)C)CC5)ncc3c(Cl)c2F)cnc2c1NCCO2 [Compound 115, 2-((8-chloro-7-fluoro-6-(8-methyl-2,3-dihydro-1H-pyrido[2,3-b][1,4]oxazin-7-yl)isoquinolin-3-yl)amino)-6-isopropyl-5,6-dihydro-4H-pyrazolo[1,5-d][1,4]diazepin-7(8H)-one]
0.014	Cc1c(-c2cc3cc(Nc4cc5n(n4)CC(=O)N(C(C)C)CC5)ncc3cc2F)cnc2c1NCCO2 [Compound 116, 2-((7-fluoro-6-(8-methyl-2,3-dihydro-1H-pyrido[2,3-b][1,4]oxazin-7-yl)isoquinolin-3-yl)amino)-6-isopropyl-5,6-dihydro-4H-pyrazolo[1,5-d][1,4]diazepin-7(8H)-one]
0.64	Cc1c(N)cncc1-c1cc(Cl)c2cnc(Nc3cc4n(n3)CC(=O)N(C(C)C)CC4)cc2c1 [Compound 117, 2-((6-(5-amino-4-methylpyridin-3-yl)-8-chloroisoquinolin-3-yl)amino)-6-isopropyl-5,6-dihydro-4H-pyrazolo[1,5-d][1,4]diazepin-7(8H)-one]
0.04	Cc1c(N)cncc1-c1cc2cc(Nc3cc4n(n3)CC(=O)N(C)C(C)(C)C4)ncc2cc1F [Compound 120, 2-((6-(5-amino-4-methylpyridin-3-yl)-7-fluoroisoquinolin-3-yl)amino)-5,5,6-trimethyl-5,6-dihydro-4H-pyrazolo[1,5-d][1,4]diazepin-7(8H)-one]
0.08	Cc1c(N)cncc1-c1cc2cc(Nc3cc4n(n3)CC(=O)N(C(C)C)CC4)ncc2c(C)c1F [Compound 121, 2-((6-(5-amino-4-methylpyridin-3-yl)-7-fluoro-8-methylisoquinolin-3-yl)amino)-6-isopropyl-5,6-dihydro-4H-pyrazolo[1,5-d][1,4]diazepin-7(8H)-one]
1	Cc1ccncc1-c1ccc2cnc(Nc3cc4n(n3)CC(=O)N(C(C)C)CC4)cc2c1 [Compound 122, 6-isopropyl-2-[[6-(4-methyl-3-pyridyl)-3-isoquinolyl]amino]-5,8-dihydro-4H-pyrazolo[1,5-d][1,4]diazepin-7-one]
0.11	Cc1c(-c2cc3cc(Nc4cc5n(n4)CC(=O)N(C(C)C)CC5)ncc3cc2F)cnc2c1NC(=O)CO2 [Compound 123, 7-[7-fluoro-3-[(6-isopropyl-7-oxo-5,8-dihydro-4H-pyrazolo[1,5-d][1,4]diazepin-2-yl)amino]-6-isoquinolyl]-8-methyl-1H-pyrido[2,3-b][1,4]oxazin-2-one]

— US12378249B2, “Isoquinoline compounds and uses thereof” (Genentech, Inc., priority 2018, dated 2025)
